Entries after “also recorded” stand apart in the source; their conditions may differ.
Tests used:
[1] = system: satellite cells from Tg:Pax7-nGFP mice; experiment: LINCS library screen for satellite cell proliferation (Hoechst 33342 high content imaging); format: cell-based, mouse; conditions: satellite cells cultured for 4 days, 96w plates
From the text: This example includes a list of primary hits from a screen designed to identify compounds that promote satellite cell proliferation in vitro. The satellite cell is a skeletal muscle stem cell responsible for post-natal muscle growth and regeneration. […] The four compound libraries tested, LINCS 1, 2, 3 and 4, were provided to us by the Sorger lab at Harvard Medical School. The Sorger lab is a member of the LINCS (Library of Integrated Network-Based Cellular Signatures) Consortium, which is an NIH initiative aiming to generate public data to further research of therapeutically relevant cellular pathways. LINCS 1, 2, and 4 contain kinase inhibitors, while LINCS 3 contains epigenetic modifiers.
FIG. 50 identifies small molecules that promote satellite cell proliferation screen in this Example. (A) Chemical screen experimental schematic outlining FACS isolation and compound library treatment of satellite cells. (B) Representative dose response curves from four of the top ten compounds. Top ten compounds were chosen based on highest fold change of cell proliferation relative to vehicle controls. Proliferation was assessed via high content imaging using Hoechst 33342 as a cell marker. (C) Representative fluorescent images of FACS sorted satellite cells from Tg:Pax7-nGFP mice on 96w plates cultured for 4 days and treated with vehicle, compound or positive control (Jak3 inhibitor 6). Optimal treatment concentration for each compound was determined in dose response; 3 uM for XMD8-92, 5 uM for SB23906, 800 nM for XMD11-50, and 400 nM for Vorinostat. Hoechst 33342 was used as a cell marker. Scale bars denote 100 um. (D) Fold change relative to vehicle control for several compounds that promote satellite cell expansion.
Satellite cells were isolated from intact limb muscle and prepared for fluorescence activated cell sorting (FACS) as described previously (Rocheteau et al., 2012). FACS was performed at Harvard University at the Bauer Flow Cytometry Core Facility on a Beckman Coulter MoFlo Legacy (Beckman Coulter). Satellite cells were sorted into Eppendorf tubes, and plated onto 96 well plates by hand (Greiner). Plates were pre-coated at 37° C. for 4 hours with […] laminin diluted in PBS. Sorted cells were cultured in StemSpan SFEM II basal medium (Stem Cell Technologies) supplemented with 0.05 ng/mL basic fibroblast growth factor (bFGF, Life Technologies). Wells for the positive control were treated with 600 nM Jak3 inhibitor IV (EMD Millipore). For screening and dose response follow up, cells were plated at 150 cells/well.
The day cells were plated was considered Day 0. Compounds were added on Day 1. For screening and dose response follow up, cells were incubated without media change until Day 4 and plates were prepared for imaging. […]

myoblasts = experiment: Myoblast differentiation in differentiation media (5% horse serum); format: cell-based; conditions: differentiation media comprising 5% horse serum (FIG. 39)
satellite cells [2] = experiment: Satellite cell proliferation screen and dose response, image-based cell count; parameters: species or system mouse; conditions: for activity on in vitro satellite cell proliferation (in words): screen hits tested in dose response / retest
satellite cells (SMPs) [3] = experiment: Differentiation of compound-treated SMPs into myotubes (myosin heavy chain staining); format: cell-based, mouse; conditions: compound in proliferation conditions, then differentiation media
Protocol: CAG-EGFP satellite cells were grown in the inventors' standard proliferation conditions and exposed to compounds for four days. Under the inventors' standard proliferation conditions cells were cultured on laminin-coated plates in Ham's F-10 medium supplemented with 10% heat inactivated horse serum, 100Units/mL penicillin/100 ug/mL streptomycin, and 2 mM L-glutamine. Compounds were added the day after plating. The compounds and media were either refreshed daily or after three days. To differentiate cells and form myotubes, after four days in proliferation conditions, media was switched to high-glucose DMEM supplemented with 10% heat inactivated horse serum, 10% fetal bovine serum, 0.5% chick embryo extract, 100Units/mL penicillin/100 ug/mL streptomycin, and 2 mM L-glutamine. Cultures were grown in differentiation media for 3-5 days until myotube formation was observed, then fixed. Cultures were then switched into differentiation media and cultured another four days. They were then fixed and stained with anti-myosin heavy chain (red channel) and Hoechst (blue channel).
For these experiments, 300 cells were plated in each well at Day 0 in our standard proliferation media (10% horse serum in F-10). […]
The inventors also assessed effects these compounds were having on the identity of the satellite cells and their ability to differentiate in culture. […]

satellite cells (SMPs) [4] = experiment: Satellite cell (SMP) proliferation with or without bFGF, 300 cells/well; format: cell-based, mouse; conditions: for additive or synergistic action with bFGF: compound plus bFGF versus bFGF alone (FIGS. 15-17, 28, 29)
human satellite cells = experiment: Expansion of human satellite cells; format: cell-based
[5] = system: satellite cells from aged and young tissue; experiment: Proliferation of satellite cells from aged and young mice; format: cell-based, mouse; conditions: aged cells as well as young cells (FIGS. 24, 25)
primary fibroblasts = experiment: Specificity test on Sca1-positive fibroblasts (Ki67); format: cell-based, mouse; conditions: primary fibroblasts (FIG. 23)
satellite cells [6] = experiment: Satellite cell proliferation in combination with TGF-beta inhibitor (Alk5 inhibitor II); format: cell-based, mouse

Question: How did the “optimal treatment concentration determined in dose response” value (from here on “optimal treatment concentration”) [1] turn out when `COc1nccc(-c2c(-c3ccc(F)cc3)ncn2C2CCC(O)CC2)n1` (stereo not shown) [SB23906] was run?
Answer: The value was 5 µM.

Question: For `COc1cc(C(=O)N2CCC(N3CCN(C)CC3)CC2)ccc1Nc1ncc2c(n1)N(C)c1ccccc1C(=O)N2C` [XMD11-50], which “optimal treatment concentration” value [1] is on record?
Answer: Its value is 0.8 µM.

Question: With `O=C(CCCCCCC(=O)Nc1ccccc1)NO` [Vorinostat, suberoylanilide hydroxamic acid] as the compound, how does the “optimal treatment concentration” value [1] read?
Answer: The value was 0.4 µM.

Question: Which “optimal treatment concentration” value [1] does the source give for `CCOc1cc(N2CCC(O)CC2)ccc1Nc1ncc2c(n1)N(C)c1ccccc1C(=O)N2C` [XMD8-92] here?
Answer: Its value is 3 µM.

Question: `N#C/C(=C\c1ccc(O)c(O)c1)C(=O)NCc1ccccc1` [Tyr AG490] was tested. Which myoblast differentiation (myoblasts) did it give?
Answer: Its myoblast differentiation is “drive myoblast differentiation”.

Question: “bFGF: basic fibroblast growth factor, positive control” was tested. Which “number of cells per well at the end of the assay” value (satellite cells [2]; 50 cells/well plated, Day 4, DMSO-treated wells around 50 cells) did it give?
Answer: The value was 150-250 cells.

Question: What about the “level of proliferation, fold change over the DMSO vehicle control” value (satellite cells [2]; FIG. 3A, positive control, DMSO 1±0.3) of the same compound?
Answer: The value was 3.4±0.9 fold change.

Question: What about the “level of proliferation, fold change over the DMSO vehicle control (normalized value)” value (satellite cells [2]; FIG. 3B, re-supplied compounds dose response, 50 cells/well, positive control, DMSO 1±0.4) of the same compound?
Answer: Its value is 5.6±1.7 fold change.

Question: And the “ability of treated cells to differentiate and fuse to form myotubes” value (satellite cells (SMPs) [3])?
Answer: Its value is “able to form large myotubes”.

Question: And the “increase in the cell number, bFGF alone” value (satellite cells (SMPs) [4]; FIG. 28)?
Answer: Its value is “six-fold”.

Question: How did the “activity on in vitro satellite cell proliferation (in words)” value (satellite cells [2]) turn out when `CCCC1O[C@@H]2C[C@H]3[C@@H]4CCC5=CC(=O)C=C[C@]5(C)[C@H]4[C@@H](O)C[C@]3(C)[C@]2(C(=O)CO)O1` (stereo partly shown) [Budesonide] was run?
Answer: The value was “identified and validated; also recorded: proliferation levels much greater than that seen in the negative control”.

Question: And the “additive or synergistic action with bFGF” value (satellite cells (SMPs) [4])?
Answer: The value was “no additional increase”.

Question: `CC(C)(C)c1cc(NC(=O)Nc2ccc(-c3cn4c(n3)sc3cc(OCCN5CCOCC5)ccc34)cc2)no1` [AC220, quizartinib] was tested. Which “expansion of human satellite cells (in words)” value (human satellite cells) did it give?
Answer: Its value is “ability to expand human satellite cells at low doses”.

Question: With `C[C@]12O[C@H](C[C@]1(O)CO)n1c3ccccc3c3c4c(c5c6ccccc6n2c5c31)CNC4=O` [CEP701, Lestaurtinib] as the compound, how does the “proliferation of the input SMP cells (level)” value (satellite cells [2]; retest, DMSO-treated cells 1±0.3 in both trials) read?
Answer: Its value is roughly 4.7±1.4.

Question: What about the “increase in proliferation, CEP701 and bFGF together” value (satellite cells (SMPs) [4]; 0.05 μM CEP701 + 5 ng/mL bFGF daily, 300 cells/well, fixed four days after plating (FIG. 14)) of the same compound?
Answer: The value was 8 fold.

Question: And the optimum concentration [5]?
Answer: Its optimum concentration is 50 nM.

Question: What about the “effect on fibroblast proliferation” value (primary fibroblasts) of the same compound?
Answer: The value was “no effect”.

Question: Which results are given for `OC[C@H]1O[C@@H](n2cnc3c(NC4CCCC4)ncnc32)[C@H](O)[C@@H]1O` [N6-cyclopentyladenosine]?
Answer: activity on in vitro satellite cell proliferation (in words) (satellite cells [2]): identified and validated; also recorded: increase in vitro satellite cell proliferation; activity on in vitro satellite cell proliferation (in words) (satellite cells [2]; listed as CPA): proliferation levels much greater than that seen in the negative control; ability of treated cells to differentiate and fuse to form myotubes (satellite cells (SMPs) [3]): able to form myotubes; increase in the cell number, combination of CPA and bFGF (satellite cells (SMPs) [4]; CPA 30 μM + bFGF (FIG. 28)): fifteen-fold; additive or synergistic action with bFGF (satellite cells (SMPs) [4]): seen to synergize with bFGF; myoblast differentiation (myoblasts): drive myoblast differentiation; additive effect with TGF-beta inhibitor (Alk5 inhibitor II) (satellite cells [6]; compound plus Alk5 inhibitor II (FIGS. 21, 32)): slight increase in proliferation

Question: Which “proliferation on addition of Alk5 inhibitor II to the cultures” value (satellite cells [6]; Alk5 inhibitor II alone) does the source give for Alk5 inhibitor II here?
Answer: The value was “slight increase in proliferation”.

Reference: patent publication US11963964B2, “Small molecules for mouse satellite cell proliferation” (President and Fellows of Harvard College, priority 2011, dated 2024)
